In publication PMC5727842, “Antioxidant and Antidiabetic Effects of Flavonoids: A Structure-Activity Relationship Based Study” (BioMed Research International, 2017):
Converted amounts (≈) assume the structure as drawn.

Key:
[1] = DPPH radical scavenging assay; settings: 30 min, 517 nm, mean ± SEM (n = 3)
Procedure: Each sample's stock solution was diluted to final concentrations of 1000–0.4889 μg/mL in MeOH. A total of 1 mL of a 0.3 mM DPPH methanolic solution was added to 2.5 mL of sample solution of different concentrations and allowed to react at room temperature. After 30 min, the absorbance (Abs) values were measured at 517 nm with a microplate reader (Tecan NanoQuant Infinite M200, Switzerland) and converted into the percentage antioxidant activity using the following equation described previously: (1) % antioxidant activity=100−Abssample−Abssample blank/Abscontrol−Abscontrol blank×100. MeOH + compound solution was used as a blank, while DPPH solution plus MeOH was used as a negative control. The positive controls were DPPH solution plus 1 mM ascorbic acid. The IC50 values were calculated by linear regression of plots. The average percent of scavenging capacity was taken from three replicates.

[2] = molecular target: α-glucosidase from Saccharomyces cerevisiae; assay: α-Glucosidase inhibitory assay; format: biochemical; settings: Table 3; mean ± SEM (n = 3); NA: not active
Procedure: α-Glucosidase inhibitory activity of the flavonoids was carried out according to the standard method with minor modification. […] A solution of 30 mM phosphate buffer (pH 6.5) was used to prepare stock solution of the sample to form a final concentration of 160 μg/mL. Then, 10 μL/well of sample was mixed with 15 μL/well of α-glucosidase from Saccharomyces cerevisiae (Megazyme, Ireland). 50 mM buffer (pH 6.5) was used to prepare the enzyme solution. Then, 115 μL/well of 30 mM buffer (pH 6.5) was added and incubated for 5 min at room temperature. Then, 75 μL/well of PNP-glucoside was added to initiate reaction and incubated at room temperature for 15 min. Finally, about 50 μL glycine at pH 10 was added to stop the reaction. The final volume of 250 μL of compound, positive control, enzyme, 30 mM buffer, and substrate was located in 96-well microplate. The absorbance (Abs) was measured using microplate reader (Tecan NanoQuant Infinite M200, Switzerland) at 405 nm to represent the amount of p-nitrophenol released from PNP-glucoside. […] The equation given below was used to calculate the inhibitory activity (%):(4) Inhibitory activity%=Abs control−Abs sample/Abs control×100%.
Tested on yeast α-glycosidase, the reaction is initiated by reacting the inhibitor (sample) with the α-glycosidase enzyme that competes with […] for the binding site, thus releasing ρ-nitrophenol which was measured in the assay.

[3] = ABTS+ radical scavenging assay; settings: 734 nm, mean ± SEM (n = 3)
Procedure: An improved ABTS^+ radical decolorization assay was carried out involving direct production of the blue/green ABTS^+ chromophore through the reaction between ABTS and potassium persulfate. Addition of antioxidant to the preformed radical cation reduces it to ABTS to an extent on a time scale depending on the antioxidant activity, the concentration of the antioxidant, and the duration of the reaction. 1 ml ABTS was dissolved in water to make 7 mM concentration of the resultant solution. […] The resultant reaction mixture was allowed to stand in the dark at room temperature for 12–16 h before being used. The ABTS^+ radical solution was diluted with MeOH to an absorbance of 0.7 (±0.02) at 734 nm. Then, 100 μl of sample at various concentrations (1000–0.4889 μg/mL) was mixed with 100 μL of diluted ABTS^+ radical. Each concentration was analyzed in triplicate and the percentage decrease of absorbance at 734 nm with a microplate reader (Tecan NanoQuant Infinite M200, Switzerland) was calculated for each point and the antioxidant capacity of the tested compounds was expressed as percent inhibition (%). The radical scavenging activity of the compounds was measured according to the following equation [29]:(2) % inhibition=Acontrol−Asample/Acontrol×100. IC50 values were calculated by linear regression of plots, and the average percent of scavenging capacity was taken from three replicates. Trolox was used as a standard in comparison for the determination of the antioxidant activity of the flavonoids.

[4] = Ferric reducing antioxidant power (FRAP); settings: for FRAP (AAE μg): ascorbic acid equivalent, mean ± SEM (n = 3), Table 2
Procedure: This assay was based on the reduction of the ferric tripyridyltriazine (Fe III-TPTZ) complex to the ferrous ion (Fe II) at a low pH forming an intense blue color. In the FRAP assay, compounds that are rich in antioxidant effect exert their action by breaking the free radical chain by donating a hydrogen atom. Briefly, ferric reducing antioxidant power (FRAP) reagent (2.5 mL of a 10 mM TPTZ solution in 40 mM HCl, 2.5 mL of 20 mM FeCl3, and 25 mL of 0.1 M acetate buffer pH 3.6) was prepared and incubated for 10 min at 37°C. Then 20 μL of each compound and ascorbic acid (standard) and 40 μL of FRAP reagent were added to 140 μL of distilled water in a 96-well plate producing a blue-colored solution. The solutions were kept at room temperature for 20 min in the dark and then measured at 593 nm with a microplate reader (Tecan, Switzerland) using a reagent blank composed of 40 μL of FRAP reagents in 200 μL of distilled water. A calibration curve was prepared with a serial dilution of ascorbic acid (standard). The total antioxidant capacity was calculated by interpolating the measured absorbance of the calibration curve and expressed as ascorbic acid equivalents. The results were corrected for dilution and expressed as AAE μg of ascorbic acid/g.

[5] = molecular target: T1, DPP-4 (Homo sapiens, UniProt P27487); assay: Dipeptidyl peptidase IV (DPP-4) inhibitory assay; format: biochemical; settings: Table 3; mean ± SEM (n = 3); NA: not active
T1 construct: purchased Cayman (Michigan, USA)
Procedure: Dipeptidyl peptidase (IV) inhibitors work by inhibiting the action of this enzyme, thereby prolonging the activity of incretins that play an important role in insulin secretion and blood glucose control regulation. DPP-4 inhibitory assay was performed as per the standard method (Cayman, USA). Firstly, 1 mg of sample was dissolved in 10% of DMSO and MeOH as the stock solution. For initial activity (100%), 10 μL of MeOH, 30 μL of diluted assay buffer, and 10 μL of diluted DPP-4 (Cayman, USA) were added to 96-well microplate. […] For background well, 10 μL of MeOH and 40 μL of diluted assay buffer were added. Then, 10 μL of prepared sample and 30 μL of diluted assay buffer were added with 10 μL of diluted DPP-4. After that, 50 μL of substrate solution was added to all wells to initiate the reaction and further incubated in the dark at 37°C for 30 min. Finally, plate was read at 360 nm of excitation wavelength and 465 nm of emission wavelength using fluorescence microplate reader (Perkin Elmer, Germany). All determinations were done in triplicate and half maximal concentration (IC50) values were calculated from the percentage of inhibition based on the linear regression analysis. The equation given below was applied to calculate the inhibitory activity (%):(5) Inhibitory activity%=Initial Activity−Sample/Initial Activity×100%.
For DPP-4 inhibitory assay, the reaction is based on the cleavage of the peptide bond by DPP releasing the free Gly-Pro-aminomethylcoumarin group, a fluorogenic substrate resulting in fluorescence excitation and emission.

T1 sequence (P27487 whole entry): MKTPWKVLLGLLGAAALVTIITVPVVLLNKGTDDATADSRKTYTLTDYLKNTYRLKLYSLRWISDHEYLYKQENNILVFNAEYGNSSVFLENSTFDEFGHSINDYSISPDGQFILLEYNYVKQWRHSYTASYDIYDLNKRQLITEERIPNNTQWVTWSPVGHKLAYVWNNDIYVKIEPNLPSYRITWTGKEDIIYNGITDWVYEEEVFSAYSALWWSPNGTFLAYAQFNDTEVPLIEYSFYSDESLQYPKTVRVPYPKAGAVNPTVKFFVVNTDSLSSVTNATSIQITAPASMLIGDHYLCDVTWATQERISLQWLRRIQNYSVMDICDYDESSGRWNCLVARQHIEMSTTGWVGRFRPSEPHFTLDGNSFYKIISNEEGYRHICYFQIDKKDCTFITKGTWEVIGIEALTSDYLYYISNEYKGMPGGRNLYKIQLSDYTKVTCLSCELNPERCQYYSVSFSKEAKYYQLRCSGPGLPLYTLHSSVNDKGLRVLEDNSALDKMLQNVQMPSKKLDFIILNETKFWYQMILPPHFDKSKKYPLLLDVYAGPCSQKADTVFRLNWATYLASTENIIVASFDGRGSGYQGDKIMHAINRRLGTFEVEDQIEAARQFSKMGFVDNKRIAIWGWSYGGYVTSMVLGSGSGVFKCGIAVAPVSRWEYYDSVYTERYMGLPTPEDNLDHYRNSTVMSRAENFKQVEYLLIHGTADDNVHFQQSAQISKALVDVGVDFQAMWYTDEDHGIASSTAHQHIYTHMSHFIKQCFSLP

Row | Structure (SMILES) | IC50 DPPH [1] | IC50 α-Glucosidase [2] | IC50 ABTS+ [3] | FRAP antioxidant capacity [4] | FRAP (AAE μg) [4] | IC50 [5]
1 | COc1cc(O)c2c(=O)cc(-c3ccccc3)oc2c1 [Techtochrysin, 5-Hydroxy-7-methoxyflavone] | >100^B µg/ml | >100^A µg/mg | 45.59 ± 4.75^E µg/ml | 11.49 ± 0.32 AAE μg of ascorbic acid/g | 11.49 ± 0.32^F AAE μg | > 373 µM
2 | O=c1cc(-c2ccc(O)c(O)c2)oc2c(O)c(O)cc(O)c12 [Hypolaetin, 3′,4′,5,7,8-Pentahydroxyflavone] | 3.69 ± 0.11^Ha µg/ml | 48.42 ± 9.71 µg/mL (≈ 160 µM) | 0.80 ± 0.03^FG µg/ml |  | 177.37 ± 1.82^B AAE μg | 115 µM
